What was measured:
Format in all cases: cell-based
p62 = p62 (Homo sapiens (Human), UniProt Q13501); experiment: Western Blot analysis of p62; details: HeLa cells, normoxic and hypoxic conditions; for p62: 24 hours, 10, 30 and 100 nM, also with Bafilomycin A, FIG. 5
Method: (§1) Western Blot analysis was used to detect amounts of specific protein in differently treated cells. Proteins are separated by size, transferred onto a nitrocellulose membrane and incubated with protein specific antibodies. The density of the observed band is proportional to the amount of the specific protein inside the cell.
(§2) Cells were plated at 4×10^6 (for hypoxia) or 3×10^6 (for normoxia) cells per […] plate in medium of high glucose DMEM (PAN) supplemented with 10% FBS (PAN), 2 mM glutamine-alanine (PAN), 2 mM pyruvate (Sigma) and 10 ml/L penicillin-streptomycin (PAN), and grown at 37° C. in […], 5% CO2 and 75% humidity. For hypoxia, cells were grown and treated in the Whitley H35 Hypoxystation (Don Whitley Scientific) at 37° C. in 0.5% O2, 5% CO2 and 75% humidity. Next day, the cells were treated with test compounds (FIG. 4: compounds of example 3/8 and 10 at concentrations 0.1, 0.3 and 1 μM, Bafilomycin A at 20 nM; FIG. 5: compounds of example 3/16, 3/8 and 10 at concentrations 10, 30 and 100 nM, Bafilomycin A at 20 nM), as well as with vehicle (DMSO) only, for 24 h. After 24 hours, the cells were washed with PBS and scraped to collect. The lysate was centrifuged at 2,000 rpm for 3 min at 4° C. The cell pellet was resuspended in 250 μl Lysis Buffer (20 mM Tris pH 7.8, 150 mM NaCl, 0.05% Tween20, 2 mM MgCl2, protease inhibitors (Roche), 1 mM NaF, 1 mM Na3VO4) and sonicated at 50% for 20 sec. The sample was centrifuged at 14,000 rpm for 4 min at 4° C. Protein concentration of the sample was measured using the DC Protein Assay Kit (Biorad, 5000112), 22 μg of protein extract per well was loaded onto a precast SDS page gel (Biorad, 1704273). Proteins were then transferred onto a PVDF-membrane (Biorad, 10026933) using Biorad Trans-Blot Turbo Transfer System. […] The chemiluminescence was measured using chemiluminescent substrate (#34580, Thermo Scientific).

p70-S6K (Thr389) = p70-S6K (Thr389) (Homo sapiens (Human), UniProt P23443); experiment: Western Blot analysis of p70-S6K phosphorylation; details: HeLa cells, 24 hours, 10, 30 and 100 nM, also with Bafilomycin A, normoxic condition, FIG. 5
Method: as §1
as §2, with “After 24 hours, the cells were washed with PBS and scraped to collect. The lysate was centrifuged at 2,000 rpm for 3 min at 4° C. The cell pellet was resuspended in 250 μl Lysis Buffer (20 mM Tris pH 7.8, 150 mM NaCl, 0.05% Tween20, 2 mM MgCl2, protease inhibitors (Roche), 1 mM NaF, 1 mM Na3VO4) and sonicated at 50% for 20 sec. The sample was centrifuged at 14,000 rpm for 4 min at 4° C.” left out, “1704273).” for “1704273). Proteins were then transferred onto a PVDF-membrane (Biorad, 10026933) using Biorad Trans-Blot Turbo Transfer System.”

HeLa cells = experiment: Lactate production inhibition assay, co-treatment with phenformin (FIG. 7); details: 48 hours co-treatment of phenformin (6.25-100 μM) with compound at 41, 14, 4.6 nM
Description: Recombinant Lactate Dehydrogenase A (LDHA) was used to convert lactate in tissue culture supernatants to pyruvate, with the concomitant reduction of NAD^+ to NADH. The electron acceptor 1-methoxyphenazine methosulfate (MPMS) was then reduced by the generated NADH, thereby regenerating NAD+. Reduced 1-methoxyphenazine methosulfate is used in turn to reduce Water Soluble Tetrazolium 8 (WST8) to an orange WST8 formazan product. The assay is adapted from the publication “Application of WST-8 based colorimetric NAD(P)H detection for quantitative dehydrogenase assays” described in Chamchoy et al., BMC Biochemistry (2019) 20(1):4.
Cells were plated at 4,000 per well in 96-well plate in a medium of high glucose DMEM (PAN) supplemented with 10% FBS (PAN), 2 mM glutamine-alanine (PAN), 2 mM pyruvate (Sigma) and 10 mL/L penicillin-streptomycin (PAN) and grown at 37° C. in 0.5% O2, 5% CO2 and 75% humidity. For hypoxia, cells were grown and treated in the Whitley H35 Hypoxystation (Don Whitley Scientific) at 37° C. in 0.5% O2, 5% CO2 and 75% humidity. […] Thereafter, 80 μl of substrate mix is added to 20 μl of diluted cell supernatant in a 96-well flat-bottomed plate and the absorbance at 460 nm determined at one minute intervals over a 30 minute period. […]

Compound | p62 protein levels (p62; 24 hours, 0.1, 0.3 and 1 μM, FIG. 4) | p62 (p62) | p70-S6K phosphorylation (Thr389) (p70-S6K (Thr389)) | lactate levels (HeLa cells)
O=C(Nc1ccc(F)c(NC(=O)c2cc3ccc(OCCCN4CCCC4)cc3s2)c1)c1ccc2c(c1)OCCO2 [3/8] | dose-dependent reduction | dose-dependent reduction | dose-dependent induction | downregulation
Cc1ccc(NC(=O)c2ccc3c(c2)OCCO3)cc1NC(=O)c1cc2cccnc2s1 [3/16] |  | dose-dependent reduction | dose-dependent induction | downregulation

Source: US20260028334A1, “N-(3-(BENZO[B]THIOPHENE-2-CARBOXAMIDO)-PHENYL)-2,3-DIHYDROBENZO[B][1,4]DIOXINE-6-CARBOXAMIDE DERIVATIVES AND RELATED COMPOUNDS AS LACTATE/ATP PRODUCTION INHIBITORS FOR THE TREATMENT OF CANCER” (WMT Aktiengesellschaft, priority 2022, published 2026)
